Test results reported in patent US10301261B2, “Substituted indoles as modulators of ROR-gamma” (Vitae Pharmaceuticals, LLC, priority 2015, dated 2019).

Tests used:
[1] = target: full-length RORγt in Jurkat cells (Homo sapiens (Human), UniProt P51449); assay: RORγt 5×RORE Assay in Jurkat Cells (Assay 2); format: cell-based; details: RORγt 5×RORE Nanoluc reporter
Protocol: [formula] RORγt 5×RORE Assay in Jurkat Cells (Assay 2)
Compounds described herein were tested for RORγ inverse agonist activity in a cell-based, transcriptional activity assay. […] (Promega, Cat. # N1021) using KpnI and HindIII restriction sites. […] Tested compounds were added to the cells in the same media (final concentration of DMSO was 0.1% (v/v)), and the plates were incubated at 37° C./5% CO2 for 16-18 hrs. Luciferase activity in the conditioned supernatants was determined with NanoGlo® assay reagents (Promega, Cat.# N1130).

[2] = target: recombinant RORγ Ligand Binding Domain (LBD) protein (Homo sapiens (Human), UniProt P51449); assay: Radio-Ligand RORγ Binding Assay (Assay 1); details: radio-ligand 25-hydroxy [26,27-3H]-cholesterol competition
Protocol: Radio-Ligand RORγ Binding Assay (Assay 1)
Compounds described herein were tested for ability to bind to RORγ in a cell-free competition assay with commercially available radio-ligand (RL), 25-hydroxy [26,27-^3H]-cholesterol (PerkinElmer, Cat. # NET674250UC), for a ligand binding site on a recombinant RORγ Ligand Binding Domain (LBD) protein expressed as a 6×His-Glutathione-S-Transferase (GST) fusion. […] The plate was shaken at 700 rpm for 20 min and incubated for 10 min at rt, after which 40 μL of poly-Lys YSi SPA beads (PerkinElmer, Cat. # RPNQ0010) were added to achieve 50 μg of the beads per well. The plate was incubated on an orbital shaker for 20 min and then for 10 min without agitation at rt. SPA signal for tritium beta radiation was registered on PerkinElmer Microbeta plate reader. […] The percent inhibition vs. concentration data were fit into a four-parameter model, and IC50 values were calculated from the fit as the concentrations corresponding to the inflection points on the dose-response curves. […]

Chain of full-length RORγt in Jurkat cells (P51449 other isoform, or with tags, fused parts or gaps): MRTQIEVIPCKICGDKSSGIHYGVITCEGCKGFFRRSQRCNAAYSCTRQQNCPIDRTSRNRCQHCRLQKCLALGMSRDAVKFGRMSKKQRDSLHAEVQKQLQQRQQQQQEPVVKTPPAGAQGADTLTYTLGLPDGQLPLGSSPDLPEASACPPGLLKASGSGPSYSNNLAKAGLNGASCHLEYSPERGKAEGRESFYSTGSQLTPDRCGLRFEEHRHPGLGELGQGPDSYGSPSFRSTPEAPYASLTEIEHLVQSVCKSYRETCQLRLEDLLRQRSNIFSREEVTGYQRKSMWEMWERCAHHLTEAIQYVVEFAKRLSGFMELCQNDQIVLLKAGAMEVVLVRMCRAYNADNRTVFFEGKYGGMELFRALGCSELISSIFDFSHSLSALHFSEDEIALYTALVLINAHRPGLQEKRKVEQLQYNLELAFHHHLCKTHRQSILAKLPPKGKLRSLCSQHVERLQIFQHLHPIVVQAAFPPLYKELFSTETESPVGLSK
Chain of recombinant RORγ Ligand Binding Domain (LBD) protein (P51449 269-508): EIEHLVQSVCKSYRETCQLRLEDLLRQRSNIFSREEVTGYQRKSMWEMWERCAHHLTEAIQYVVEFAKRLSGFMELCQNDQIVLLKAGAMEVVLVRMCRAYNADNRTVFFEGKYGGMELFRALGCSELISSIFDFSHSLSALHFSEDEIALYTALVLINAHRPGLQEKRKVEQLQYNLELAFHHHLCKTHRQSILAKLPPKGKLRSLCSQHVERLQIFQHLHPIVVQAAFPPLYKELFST

Row | IC50 [1] [nM] | Ki [2] [nM] | SMILES
1 | < 100 | < 100 | CCn1c(Cc2ccc(C(F)(F)F)cc2)nc2cc(C(=O)NCc3ccc(S(=O)(=O)CC)cc3)ccc21 [BE-35, 1-ethyl-N-(4-(ethylsulfonyl)benzyl)-2-(4-(trifluoromethyl)benzyl)-1H-benzo[d]imidazole-5-carboxamide]
2 | < 100 | < 100 | CCS(=O)(=O)c1ccc(CNC(=O)c2ccc3c(c2)nc(Cc2ccc(C(F)(F)F)cc2)n3C2CC2)cc1 [BE-36, 1-cyclopropyl-N-(4-(ethylsulfonyl)benzyl)-2-(4-(trifluoromethyl)benzyl)-1H-benzo[d]imidazole-5-carboxamide]
3 | < 100 | < 100 | CCS(=O)(=O)c1ccc(CNC(=O)c2ccc3c(c2)nc(Cc2ccc(C(F)(F)F)cc2)n3CC(F)(F)F)cc1 [BE-37, N-(4-(ethylsulfonyl)benzyl)-1-(2,2,2-trifluoroethyl)-2-(4-(trifluoromethyl)benzyl)-1H-benzo[d]imidazole-5-carboxamide]
4 | 100 to 1000 | < 100 | CCS(=O)(=O)c1ccc(CNC(=O)c2ccc3c(c2)nc(C[C@H]2CC[C@H](OC)CC2)n3C2CC2)cc1 [BE-46.1, 1-cyclopropyl-N-(4-(ethylsulfonyl)benzyl)-2-(((1r,4r)-4-methoxycyclohexyl)methyl)-1H-benzo[d]imidazole-5-carboxamide]
5 | > 1000 | < 100 | CCS(=O)(=O)c1ccc(CNC(=O)c2ccc3c(c2)nc(C[C@H]2CC[C@@H](OC)CC2)n3C2CC2)cc1 [BE-46.2, 1-cyclopropyl-N-(4-(ethylsulfonyl)benzyl)-2-(((1s,4s)-4-methoxycyclohexyl)methyl)-1H-benzo[d]imidazole-5-carboxamide]
6 | < 100 | < 100 | CCS(=O)(=O)c1ccc([C@H](CO)NC(=O)c2ccc3c(c2)nc(Cc2ccc(OC(F)(F)F)cc2)n3C2CC2)cc1 [BE-47, (R)-1-cyclopropyl-N-(1-(4-(ethylsulfonyl)phenyl)-2-hydroxyethyl)-2-(4-(trifluoromethoxy)benzyl)-1H-benzo[d]imidazole-5-carboxamide]
7 | < 100 | < 100 | CCS(=O)(=O)c1ccc(CNC(=O)c2ccc3c(c2)nc(Cc2ccc(OC(F)F)cc2)n3C2CC2)cc1 [BE-48, 1-cyclopropyl-2-(4-(difluoromethoxy)benzyl)-N-(4-(ethylsulfonyl)benzyl)-1H-benzo[d]imidazole-5-carboxamide]
8 | 100 to 1000 | < 100 | CCS(=O)(=O)c1ccc(CNC(=O)c2ccc3c(c2)nc(CC2CCN(C(=O)OC(C)(C)C)CC2)n3C2CC2)cc1 [BE-49, tert-butyl 4-((1-cyclopropyl-5-((4-(ethylsulfonyl)benzyl)carbamoyl)-1H-benzo[d]imidazol-2-yl)methyl)piperidine-1-carboxylate]
9 | > 1000 | < 100 | CCS(=O)(=O)c1ccc(CNC(=O)c2ccc3c(c2)nc(Cc2ccc(Cl)cn2)n3C2CC2)cc1 [BE-52, 2-((5-chloropyridin-2-yl)methyl)-1-cyclopropyl-N-(4-(ethylsulfonyl)benzyl)-1H-benzo[d]imidazole-5-carboxamide]
10 | < 100 | < 100 | CCS(=O)(=O)c1ccc(CNC(=O)c2ccc3c(c2)nc(CN2CCC(C(F)(F)F)CC2)n3CC(C)C)cc1 [BE-53, N-(4-(ethylsulfonyl)benzyl)-1-isobutyl-2-((4-(trifluoromethyl)piperidin-1-yl)methyl)-1H-benzo[d]imidazole-5-carboxamide]
11 | < 100 | < 100 | CCS(=O)(=O)c1ccc([C@H](CO)NC(=O)c2ccc3c(c2)nc(CN2CCC(C(F)(F)F)CC2)n3C2CC2)cc1 [BE-54, (R)-1-cyclopropyl-N-(1-(4-(ethylsulfonyl)phenyl)-2-hydroxyethyl)-2-((4-(trifluoromethyl)piperidin-1-yl)methyl)-1H-benzo[d]imidazole-5-carboxamide]
12 | < 100 | < 100 | CCS(=O)(=O)c1ccc(CNC(=O)c2ccc3c(c2)nc(C(=O)c2ccc(C(F)(F)F)cc2)n3C2CC2)cc1 [BE-65, 1-cyclopropyl-N-(4-(ethylsulfonyl)benzyl)-2-(4-(trifluoromethyl)benzoyl)-1H-benzo[d]imidazole-5-carboxamide]
13 | < 100 | < 100 | CCS(=O)(=O)c1ccc([C@H](CO)NC(=O)c2ccc3c(c2)nc(Oc2ccc(C(F)(F)F)cc2)n3C2CC2)nc1 [BE-70, (R)-1-cyclopropyl-N-(1-(5-(ethylsulfonyl)pyridin-2-yl)-2-hydroxyethyl)-2-(4-(trifluoromethyl)phenoxy)-1H-benzo[d]imidazole-5-carboxamide]
14 | < 100 | < 100 | CCn1c(Cc2ccc(C(F)(F)F)cc2)cc2cc(C(=O)NCc3ccc(S(=O)(=O)CC)cc3)ccc21 [IN-1, 1-ethyl-N-(4-(ethylsulfonyl)benzyl)-2-(4-(trifluoromethyl)benzyl)-1H-indole-5-carboxamide]
15 | < 100 | < 100 | CCn1c(Cc2ccc(C(F)(F)F)cc2)cc2cc(C(=O)NCc3ccc(S(=O)(=O)CC)cn3)ccc21 [IN-2, 1-ethyl-N-((5-(ethylsulfonyl)pyridin-2-yl)methyl)-2-(4-(trifluoromethyl)benzyl)-1H-indole-5-carboxamide]
16 | < 100 | < 100 | CCn1c(Cc2ccc(C(F)(F)F)cc2)cc2cc(C(=O)N[C@@H](CO)c3ccc(S(=O)(=O)CC)cc3)ccc21 [IN-3, (R)-1-ethyl-N-(1-(4-(ethylsulfonyl)phenyl)-2-hydroxyethyl)-2-(4-(trifluoromethyl)benzyl)-1H-indole-5-carboxamide]
17 | < 100 | < 100 | CCn1c(Cc2ccc3c(c2)OC(F)(F)O3)cc2cc(C(=O)N[C@@H](CO)c3ccc(S(=O)(=O)CC)cn3)ccc21 [IN-5, (R)-2-((2,2-difluorobenzo[d][1,3]dioxol-5-yl)methyl)-1-ethyl-N-(1-(5-(ethylsulfonyl)pyridin-2-yl)-2-hydroxyethyl)-1H-indole-5-carboxamide]

Row | SMILES | IC50 [1] [nM] | Ki [2] [nM]
18 | CS(=O)(=O)c1ccc(CNC(=O)c2ccc3c(c2)nc(C[C@H]2CC[C@H](C(F)(F)F)CC2)n3C2CC2)cc1 [BE-30, 1-cyclopropyl-N-(4-(methylsulfonyl)benzyl)-2-(((1r,4r)-4-(trifluoromethyl)cyclohexyl)methyl)-1H-benzo[d]imidazole-5-carboxamide] | < 100 | < 100
19 | CNS(=O)(=O)c1ccc(CNC(=O)c2ccc3c(c2)nc(C[C@H]2CC[C@H](C(F)(F)F)CC2)n3C2CC2)nc1 [BE-31, 1-cyclopropyl-N-((5-(N-methylsulfamoyl)pyridin-2-yl)methyl)-2-(((1r,4r)-4-(trifluoromethyl)cyclohexyl)methyl)-1H-benzo[d]imidazole-5-carboxamide] | > 1000 | < 100
20 | CS(=O)(=O)c1ccc([C@H](CO)NC(=O)c2ccc3c(c2)nc(C[C@H]2CC[C@H](C(F)(F)F)CC2)n3C2CC2)cc1 [BE-32, 1-cyclopropyl-N-((R)-2-hydroxy-1-(4-(methylsulfonyl)phenyl)ethyl)-2-(((1r,4R)-4-(trifluoromethyl)cyclohexyl)methyl)-1H-benzo[d]imidazole-5-carboxamide] | < 100 | < 100
21 | CNS(=O)(=O)c1ccc(CNC(=O)c2ccc3c(c2)nc(C[C@H]2CC[C@H](C(F)(F)F)CC2)n3C2CC2)cc1 [BE-33, 1-cyclopropyl-N-(4-(N-methylsulfamoyl)benzyl)-2-(((1r,4r)-4-(trifluoromethyl)cyclohexyl)methyl)-1H-benzo[d]imidazole-5-carboxamide] | < 100 | < 100
